In patent US11739100B2, “2,3-dihydro-1h-imidazo{1,2-a}pyrimidin-5-one and this 1,2,3,4-tetrahydropyrimido{1,2-a}pyrimidin-6-one derivatives comprising a substituted morpholine, preparation thereof and pharmaceutical use thereof” (SANOFI, priority 2012, dated 2023):

What follows are molecules tested against T1, recombinant Vps34 (Homo sapiens, UniProt Q8NEB9) (assay: Phosphorylation of phosphatidylinositol (PI) by Vps34 in vitro, ADP detected by TR-FRET (HTRF Transcreener ADP)). Details: 10 μM ATP, 55 μg/ml PI, approximately 3 nM Vps34, 1 hour at ambient temperature; absolute IC50, mean of two independent experiments; read-out: IC50 activity range.
T1 construct: purchased Invitrogen PV5126
Format: biochemical

T1 sequence (Q8NEB9 whole entry): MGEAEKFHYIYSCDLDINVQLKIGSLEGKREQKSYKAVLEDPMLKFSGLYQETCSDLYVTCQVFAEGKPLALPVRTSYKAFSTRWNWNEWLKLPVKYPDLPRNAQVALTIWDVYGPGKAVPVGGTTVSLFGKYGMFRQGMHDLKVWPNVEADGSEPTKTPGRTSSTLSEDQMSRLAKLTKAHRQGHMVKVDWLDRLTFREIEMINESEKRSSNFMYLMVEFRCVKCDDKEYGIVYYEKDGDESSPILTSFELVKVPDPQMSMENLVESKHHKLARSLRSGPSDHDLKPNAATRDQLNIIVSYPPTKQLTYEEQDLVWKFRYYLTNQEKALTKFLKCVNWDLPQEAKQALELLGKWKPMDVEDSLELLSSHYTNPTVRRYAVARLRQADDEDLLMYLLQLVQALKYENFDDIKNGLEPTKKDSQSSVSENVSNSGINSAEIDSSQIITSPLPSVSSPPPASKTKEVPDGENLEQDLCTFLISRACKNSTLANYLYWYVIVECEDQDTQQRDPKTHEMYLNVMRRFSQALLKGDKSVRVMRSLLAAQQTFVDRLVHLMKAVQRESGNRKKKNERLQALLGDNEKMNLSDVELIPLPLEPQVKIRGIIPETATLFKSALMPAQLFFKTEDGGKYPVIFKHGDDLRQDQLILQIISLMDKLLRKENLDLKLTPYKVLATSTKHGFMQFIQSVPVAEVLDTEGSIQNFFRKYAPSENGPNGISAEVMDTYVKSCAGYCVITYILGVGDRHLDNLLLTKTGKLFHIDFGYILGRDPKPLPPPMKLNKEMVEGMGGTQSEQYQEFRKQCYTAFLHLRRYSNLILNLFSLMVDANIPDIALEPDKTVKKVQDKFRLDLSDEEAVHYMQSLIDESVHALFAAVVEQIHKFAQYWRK

IC50	Structure (SMILES)
< 0.01 µM	C[C@@H]1COCCN1c1cc(=O)n2c(n1)N(CC(=O)C1CCCCC1)[C@H](C(F)(F)F)CC2 [Example 258, (S)-9-(2-Cyclohexyl-2-oxoethyl)-2-((R)-3-methylmorpholin-4-yl)-8-trifluoromethyl-6,7,8,9-tetrahydro-pyrimido[1,2-a]-pyrimidin-4-one]
< 0.01 µM	C[C@@H]1COCCN1c1cc(=O)n2c(n1)N(CC(O)c1ccccn1)[C@H](C(F)(F)F)CC2 (single isomer, unassigned) [Example 212]
< 0.01 µM	C[C@@H]1COCCN1c1cc(=O)n2c(n1)N(Cc1ccnc(Cl)c1)[C@](C)(C(F)(F)F)C2 [Example 181, (S)-1-(2-Chloro-pyridin-4-ylmethyl)-2-methyl-7-((R)-3-methylmorpholin-4-yl)-2-trifluoromethyl-2,3-dihydro-1H-imidazo[1,2-a]-pyrimidin-5-one]
< 0.01 µM	COc1cc(N2c3nc(N4CCOC[C@H]4C)cc(=O)n3CC[C@H]2C(F)(F)F)ccn1 [Example 80, (S)-9-(2-Methoxy-pyridin-4-yl)-2-((R)-3-methylmorpholin-4-yl)-8-trifluoromethyl-6,7,8,9-tetrahydro-pyrimido[1,2-a]-pyrimidin-4-one]
< 0.01 µM	C[C@@H]1COCCN1c1cc(=O)n2c(n1)N(C/C(=N\O)C1CC1)[C@H](C(F)(F)F)CC2 (single isomer, unassigned) [Example 304]
0.01 to 0.1 µM	C[C@@H]1COCCN1c1cc(=O)n2c(n1)N(CC(=O)C1CCCN1C(=O)OC(C)(C)C)[C@H](C(F)(F)F)CC2 (stereo partly drawn) [Example 261, 2-{2-[(S)-8-((R)-3-Methylmorpholin-4-yl)-6-oxo-2-trifluoromethyl-3,4-dihydro-2H,6H-pyrimido[1,2-a]-pyrimidin-1-yl]acetyl}-pyrrolidine-1-carboxylic acid tert-butyl ester]
< 0.01 µM	C[C@@H]1COCCN1c1cc(=O)n2c(n1)N(c1ccc(C3CC3)nc1)CC[C@@H]2C(F)(F)F [Example 107, (R)-9-(6-Cyclopropyl-pyridin-3-yl)-2-((R)-3-methylmorpholin-4-yl)-6-trifluoromethyl-6,7,8,9-tetrahydro-pyrimido[1,2-a]-pyrimidin-4-one]
< 0.01 µM	COC(=O)CN1c2nc(N3CCOC[C@H]3C)cc(=O)n2CC[C@H]1C(F)(F)F [Example 262, [(S)-8-((R)-3-Methyl-morpholin-4-yl)-6-oxo-2-trifluoromethyl-3,4-dihydro-2H,6H-pyrimido[1,2-a]-pyrimidin-1-yl]acetic acid methyl ester]
< 0.01 µM	C[C@@H]1COCCN1c1cc(=O)n2c(n1)N(CC(C)(C)O)[C@](C)(C(F)(F)F)CC2 [Example 200, (S)-9-(2-Hydroxy-2-methylpropyl)-8-methyl-2-((R)-3-methylmorpholin-4-yl)-8-trifluoromethyl-6,7,8,9-tetrahydro-pyrimido[1,2-a]-pyrimidin-4-one]
0.01 to 0.1 µM	C[C@@H]1COCCN1c1cc(=O)n2c(n1)N(Cc1cnco1)[C@](C)(C(F)(F)F)C2 [Example 182, (S)-2-Methyl-7-((R)-3-methylmorpholin-4-yl)-1-oxazol-5-ylmethyl-2-trifluoromethyl-2,3-dihydro-1H-imidazo[1,2-a]-pyrimidin-5-one]
< 0.01 µM	C[C@@H]1COCCN1c1cc(=O)n2c(n1)N(Cc1cocn1)[C@](C)(C(F)(F)F)C2 [Example 183, (S)-2-Methyl-7-((R)-3-methylmorpholin-4-yl)-1-oxazol-4-ylmethyl-2-trifluoromethyl-2,3-dihydro-1H-imidazo[1,2-a]-pyrimidin-5-one]
< 0.01 µM	CC(C)C(=O)CN1c2nc(N3CCOC[C@H]3C)cc(=O)n2CC[C@@]1(C)C(F)(F)F [Example 252, (S)-8-Methyl-2-((R)-3-methylmorpholin-4-yl)-9-(3-methyl-2-oxo-butyl)-8-trifluoromethyl-6,7,8,9-tetrahydro-pyrimido[1,2-a]-pyrimidin-4-one]
< 0.01 µM	CC(=O)CN1c2nc(N3CCOC[C@H]3C)c(F)c(=O)n2CC[C@H]1C(F)(F)F [Example 7, (S)-3-Fluoro-2-((R)-3-methylmorpholin-4-yl)-9-(2-oxopropyl)-8-trifluoromethyl-6,7,8,9-tetrahydro-pyrimido[1,2-a]-pyrimidin-4-one]
< 0.01 µM	C[C@@H]1COCCN1c1nc2n(c(=O)c1F)CC[C@@H](C(F)(F)F)N2CCOCC(F)(F)F [Example 48, (S)-3-Fluoro-2-((R)-3-methylmorpholin-4-yl)-9-[2-(2,2,2-trifluoro-ethoxy)ethyl]-8-trifluoromethyl-6,7,8,9-tetrahydro-pyrimido[1,2-a]-pyrimidin-4-one]
< 0.01 µM	C[C@@H]1COCCN1c1cc(=O)n2c(n1)N(CC(=O)C1(C)CCCC1)[C@H](C(F)(F)F)CC2 [Example 253, (S)-9-[2-(1-Methyl-cyclopentyl)-2-oxo-ethyl]-2-((R)-3-methyl-morpholin-4-yl)-8-trifluoromethyl-6,7,8,9-tetrahydro-pyrimido[1,2-a]-pyrimidin-4-one]
< 0.01 µM	CO[C@H](CN1c2nc(N3CCOC[C@H]3C)cc(=O)n2CC[C@H]1C(F)(F)F)c1ccccc1 [Example 100, (S)-9-((S)-2-Methoxy-2-phenylethyl)-2-((R)-3-methylmorpholin-4-yl)-8-trifluoromethyl-6,7,8,9-tetrahydro-pyrimido[1,2-a]-pyrimidin-4-one]
< 0.01 µM	CC(C)C(=O)CN1CC[C@H](C(F)(F)F)n2c1nc(N1CCOC[C@H]1C)cc2=O [Example 130, (R)-2-((R)-3-Methyl-morpholin-4-yl)-9-(3-methyl-2-oxobutyl)-6-trifluoromethyl-6,7,8,9-tetrahydro-pyrimido[1,2-a]-pyrimidin-4-one]
< 0.01 µM	C[C@@H]1COCCN1c1nc2n(c(=O)c1F)CC[C@@H](C(F)(F)F)N2Cc1ccnn1C(F)F [Example 297, (S)-9-(2-Difluoromethyl-2H-pyrazol-3-ylmethyl)-3-fluoro-2-((R)-3-methyl-morpholin-4-yl)-8-trifluoromethyl-6,7,8,9-tetrahydro-pyrimido[1,2-a]-pyrimidin-4-one]
< 0.01 µM	C[C@@H]1COCCN1c1cc(=O)n2c(n1)N(c1cccc(F)c1)[C@H](C(F)(F)F)CC2 [Example 75, (S)-9-(3-Fluoro-phenyl)-2-((R)-3-methylmorpholin-4-yl)-8-trifluoromethyl-6,7,8,9-tetrahydro-pyrimido[1,2-a]-pyrimidin-4-one]
0.01 to 0.1 µM	Cc1nnsc1CN1c2nc(N3CCOC[C@H]3C)cc(=O)n2CC[C@H]1C(F)(F)F [Example 125, (S)-2-((R)-3-Methyl-morpholin-4-yl)-9-(4-methyl-[1,2,3]thiadiazol-5-yl-methyl)-8-trifluoromethyl-6,7,8,9-tetrahydro-pyrimido[1,2-a]-pyrimidin-4-one]
< 0.01 µM	CC1COCC(C)N1c1cc(=O)n2c(n1)N(CC(=O)c1ccccc1)[C@H](C(F)(F)F)CC2 (stereo in doubt) [Example 153, (S)-2-((3S,5S)-3,5-Dimethylmorpholin-4-yl)-9-(2-oxo-2-phenyl-ethyl)-8-trifluoromethyl-6,7,8,9-tetrahydro-pyrimido[1,2-a]-pyrimidin-4-one]
0.01 to 0.1 µM	O=c1cc(N2CC3CCC(C2)O3)nc2n1CC[C@@H](C(F)(F)F)N2Cc1cnc(Cl)s1 [Example 165, (S)-9-(2-Chloro-thiazol-5-ylmethyl)-2-(8-oxa-3-aza-bicyclo[3.2.1]oct-3-yl)-8-trifluoromethyl-6,7,8,9-tetrahydro-pyrimido[1,2-a]-pyrimidin-4-one]
0.01 to 0.1 µM	C[C@@H]1COCCN1c1cc(=O)n2c(n1)N(CC(C)(C)O)CC[C@@H]2C(F)(F)F [Example 113, (R)-9-(2-Hydroxy-2-methylpropyl)-2-((R)-3-methylmorpholin-4-yl)-6-trifluoromethyl-6,7,8,9-tetrahydro-pyrimido[1,2-a]-pyrimidin-4-one]
< 0.01 µM	Cc1nc(CN2CC[C@H](C(F)(F)F)n3c2nc(N2CCOC[C@H]2C)c(F)c3=O)no1 [Example 21, (R)-3-Fluoro-2-((R)-3-methylmorpholin-4-yl)-9-(5-methyl-[1,2,4]oxadiazol-3-yl-methyl)-6-trifluoromethyl-6,7,8,9-tetrahydro-pyrimido[1,2-a]-pyrimidin-4-one]
< 0.01 µM	Cc1noc(CN2CC[C@H](C(F)(F)F)n3c2nc(N2CCOC[C@H]2C)c(F)c3=O)n1 [Example 149, (R)-3-Fluoro-2-((R)-3-methylmorpholin-4-yl)-9-(3-methyl-[1,2,4]oxadiazol-5-yl-methyl)-6-trifluoromethyl-6,7,8,9-tetrahydro-pyrimido[1,2-a]-pyrimidin-4-one]
< 0.01 µM	C[C@@H]1COCCN1c1cc(=O)n2c(n1)N(CC(O)c1ccccn1)[C@H](C(F)(F)F)CC2 (stereo partly drawn) [Example 213, (S)-9-(2-Hydroxy-2-pyridin-2-ylethyl)-2-((R)-3-methyl-morpholin-4-yl)-8-trifluoromethyl-6,7,8,9-tetrahydro-pyrimido[1,2-a]-pyrimidin-4-one]
< 0.01 µM	Cc1cc(C(=O)CN2c3nc(N4CCOC[C@H]4C)c(F)c(=O)n3CC[C@H]2C(F)(F)F)no1 [Example 294, (S)-3-Fluoro-9-[2-(5-methylisoxazol-3-yl)-2-oxoethyl]-2-((R)-3-methylmorpholin-4-yl)-8-trifluoromethyl-6,7,8,9-tetrahydro-pyrimido[1,2-a]-pyrimidin-4-one]
0.01 to 0.1 µM	C[C@@H]1COCCN1c1nc2n(c(=O)c1F)CCC(C)(C)N2Cc1ccon1 [Example 73, 3-Fluoro-9-isoxazol-3-ylmethyl-8,8-dimethyl-2-((R)-3-methyl-morpholin-4-yl)-6,7,8,9-tetrahydro-pyrimido[1,2-a]-pyrimidin-4-one]
< 0.01 µM	Cc1cc(CN2c3nc(N4CCOC[C@H]4C)cc(=O)n3CC[C@H]2C(F)(F)F)on1 [Example 101, (S)-9-(3-Methyl-isoxazol-5-ylmethyl)-2-((R)-3-methyl-morpholin-4-yl)-8-trifluoromethyl-6,7,8,9-tetrahydro-pyrimido[1,2-a]-pyrimidin-4-one]
< 0.01 µM	Cc1noc(CN2c3nc(N4CCOC[C@H]4C)cc(=O)n3CC[C@H]2C(F)(F)F)n1 [Example 17, (S)-2-((R)-3-Methyl-morpholin-4-yl)-9-(3-methyl-[1,2,4]oxadiazol-5-yl-methyl)-8-trifluoromethyl-6,7,8,9-tetrahydro-pyrimido[1,2-a]-pyrimidin-4-one]
